Values quoted from earlier work in patent US20050004010A1, “Cobalamin conjugates useful as imaging agents and as antitumor agents” (Mayo Foundation For Medical Education, priority 1999, published 2005).

Conditions: L isomer versus D isomer

Question: With `COc1cccc2c1C(=O)c1c(O)c3c(c(O)c1C2=O)C[C@@](O)(C(C)=O)C[C@@H]3O[C@H]1C[C@H](NC(=O)[C@@H](N)CC(C)C)C(O)[C@H](C)O1` (stereo partly drawn) [N-(L-leucyl) daunorubicin] as the compound, how does the “hydrolysis in vivo to regenerate daunorubicin” value read?
Answer: Its value is “hydrolyzed in vivo to regenerate daunorubicin”.
